Assay results: patent publication US9573947B2, “Salt of pyrazoloquinoline derivative, and crystal thereof” (Eisai R&D Management Co., Ltd., priority 2013, dated 2017)

Key:
[1] = tested on: cerebrospinal fluid cGMP; assay: Effect on rodent cerebrospinal fluid cGMP; type: in vivo, Long-Evans (LE) male rats; conditions: LE rats, 10 mg/kg, 1 hour post-administration; relative to vehicle group; compound synthesized according to Reference Example 1
Procedure: Test compounds were administered to ICR male mice (CHARLES RIVER LABORATORIES JAPAN, INC.), Sprague-Dawley (SD) male rats (CHARLES RIVER LABORATORIES JAPAN, INC.) or Long-Evans (LE) male rats (Institute for Animal Reproduction (general incorporated foundation)), and then cerebrospinal fluid was collected under pentobarbital anesthesia and stored at −20° C. Measurement of cGMP in cerebrospinal fluid was performed according to the acetylation EIA procedure of cGMP EIA kit (GE Healthcare) or the non-acetylation procedure of cGMP EIA kit (Cayman Chemical).

[2] = Dissolution test in fasted state simulated intestinal fluid; type: physicochemical; conditions: fasted state simulated intestinal fluid pH 6.5, 37° C., 50 rpm, in terms of compound (I)
Procedure: Each of compound (I) (50 mg), the compound of Example 1 (30 mg) and the compound of Example 2 (30 mg) was filled into a hydroxypropyl methylcellulose capsule, together with an equal weight of lactose hydrate. A 708-DS from Agilent Technologies was equipped with small stirring paddles and small vessels, and used as a dissolution test apparatus. Each drug-filled capsule was added to 50 ml of fasted state simulated intestinal fluid (a phosphate buffer pH 6.5 containing 0.75 mM lecithin and 3 mM sodium taurocholate) which had been warmed to 37° C. The drug was dissolved by rotating the stirring paddle at a speed of 50 rpm. The dissolved solution was sampled over time and the drug concentrations were measured by HPLC. Such dissolution tests using fasted state simulated intestinal fluid are often used to evaluate the dissolution and absorption characteristics of drugs (e.g., Takano et al., “Oral absorption of poorly water-soluble drugs: computer simulation of fraction absorbed in humans from a miniscale dissolution test”, Pharm Res., vol. 23, pp. 1144-1156, 2006). The results were shown in Table 1 and the graph in FIG. 12.

[3] = Test on oral absorption characteristics in dogs; type: in vivo, beagle dogs; conditions: oral capsule, 100 mg in terms of the free form; for AREA UNDER PLASMA CONCENTRATION-TIME CURVE, MEAN: mean of 4 beagle dogs
[4] = tested on: hippocampal cGMP; assay: Effect on rodent hippocampal cGMP; type: in vivo, LE male rats; conditions: LE rats, 10 mg/kg, 1 hour post-administration; relative to vehicle group; compound synthesized according to Reference Example 1
Procedure: Test compounds were administered to SD male rats (CHARLES RIVER LABORATORIES JAPAN, INC.) or LE male rats (Institute for Animal Reproduction (foundation)). Then a microwave treatment was performed under pentobarbital anesthesia, and the hippocampus were isolated, subjected to measurement of their wet weights, then frozen in liquid nitrogen and stored at −80° C. In the measurement of cGMP in the hippocampus, a 0.5 M perchloric acid/1 mM EDTA solution was added so that the wet weight would constitute 5% (w/v), and the mixture was homogenized. After the homogenization, the homogenate was centrifuged (10000 rpm, 15 min), and the supernatant was collected. The collected supernatant was neutralized with a 2 M potassium hydrogen carbonate solution and centrifuged (13000 rpm, 10 min) The cGMP concentration in the supernatant was measured according to the non-acetylation EIA procedure of cGMP EIA kit (GE Healthcare). The results were calculated using the following formula as an increase (C) in the amount of cGMP in the test compound-administered group (B) relative to the amount of cGMP in the vehicle-administered group (A). cGMP increase(C)=[(B)−(A)]/(A)×100(%) In the case of the compound (I) synthesized according to Reference Example 1, the cGMP increase was 58% at 1 hour post-administration of a dose of 10 mg/kg to LE rats.

COc1ncc(C)c(-c2ccc3c(c2)[nH]c(=O)c2cnn([C@H]4CCOC4)c23)c1C [compound (I), (S)-7-(2-methoxy-3,5-dimethylpyridin-4-yl)-1-(tetrahydrofuran-3-yl)-1H-pyrazolo[4,3-c]quinolin-4(5H)-one]
cGMP increase in cerebrospinal fluid [1]: 274%
CONCENTRATION (dissolution) ([2]; 6 minutes): 100 ng/mL
CONCENTRATION (dissolution) ([2]; 10 minutes): 300 ng/mL
CONCENTRATION (dissolution) ([2]; 15 minutes): 1800 ng/mL
CONCENTRATION (dissolution) ([2]; 20 minutes): 3200 ng/mL
CONCENTRATION (dissolution) ([2]; 30 minutes): 4400 ng/mL
CONCENTRATION (dissolution) ([2]; 60 minutes): 5000 ng/mL
CONCENTRATION (dissolution) ([2]; 90 minutes): 5200 ng/mL
CONCENTRATION (dissolution) ([2]; 120 minutes): 5100 ng/mL
CONCENTRATION (dissolution) ([2]; 180 minutes): 5200 ng/mL
CONCENTRATION (dissolution) ([2]; 240 minutes): 5400 ng/mL
PLASMA CONCENTRATION ([3]; Dog 1, 0.25 hours): BQL
PLASMA CONCENTRATION ([3]; Dog 1, 0.5 hours): 5 ng/mL
PLASMA CONCENTRATION ([3]; Dog 1, 1 hour): 55 ng/mL
PLASMA CONCENTRATION ([3]; Dog 1, 2 hours): 94 ng/mL
PLASMA CONCENTRATION ([3]; Dog 1, 4 hours): 64 ng/mL
PLASMA CONCENTRATION ([3]; Dog 1, 6 hours): 45 ng/mL
PLASMA CONCENTRATION ([3]; Dog 1, 8 hours): 43 ng/mL
PLASMA CONCENTRATION ([3]; Dog 1, 24 hours): 234 ng/mL
AREA UNDER PLASMA CONCENTRATION-TIME CURVE ([3]; Dog 1): 2660 ng·h/mL
PLASMA CONCENTRATION ([3]; Dog 2, 0.25 hours): BQL
PLASMA CONCENTRATION ([3]; Dog 2, 0.5 hours): 29 ng/mL
PLASMA CONCENTRATION ([3]; Dog 2, 1 hour): 67 ng/mL
PLASMA CONCENTRATION ([3]; Dog 2, 2 hours): 61 ng/mL
PLASMA CONCENTRATION ([3]; Dog 2, 4 hours): 51 ng/mL
PLASMA CONCENTRATION ([3]; Dog 2, 6 hours): 45 ng/mL
PLASMA CONCENTRATION ([3]; Dog 2, 8 hours): 41 ng/mL
PLASMA CONCENTRATION ([3]; Dog 2, 24 hours): 7 ng/mL
AREA UNDER PLASMA CONCENTRATION-TIME CURVE ([3]; Dog 2): 770 ng·h/mL
PLASMA CONCENTRATION ([3]; Dog 3, 0.25 hours): BQL
PLASMA CONCENTRATION ([3]; Dog 3, 0.5 hours): 34 ng/mL
PLASMA CONCENTRATION ([3]; Dog 3, 1 hour): 142 ng/mL
PLASMA CONCENTRATION ([3]; Dog 3, 2 hours): 133 ng/mL
PLASMA CONCENTRATION ([3]; Dog 3, 4 hours): 104 ng/mL
PLASMA CONCENTRATION ([3]; Dog 3, 6 hours): 77 ng/mL
PLASMA CONCENTRATION ([3]; Dog 3, 24 hours): 9 ng/mL
AREA UNDER PLASMA CONCENTRATION-TIME CURVE ([3]; Dog 3): 1430 ng·h/mL
PLASMA CONCENTRATION ([3]; Dog 4, 0.25 hours): BQL
PLASMA CONCENTRATION ([3]; Dog 4, 0.5 hours): BQL
PLASMA CONCENTRATION ([3]; Dog 4, 1 hour): 17 ng/mL
PLASMA CONCENTRATION ([3]; Dog 4, 24 hours): 28 ng/mL
AREA UNDER PLASMA CONCENTRATION-TIME CURVE ([3]; Dog 4): 2680 ng·h/mL
concentration at 8 h ([3]; beagle, dog, plasma, po, 100 mg, Dog 3, 8 hours): 74 ng/mL
concentration at 2 h ([3]; beagle, dog, plasma, po, 100 mg, Dog 4, 2 hours): 227 ng/mL
concentration at 4 h ([3]; beagle, dog, plasma, po, 100 mg, Dog 4, 4 hours): 208 ng/mL
concentration at 6 h ([3]; beagle, dog, plasma, po, 100 mg, Dog 4, 6 hours): 164 ng/mL
concentration at 8 h ([3]; beagle, dog, plasma, po, 100 mg, Dog 4, 8 hours): 151 ng/mL
concentration at 24 h ([3]; beagle, dog, plasma, po, 100 mg, mean of dogs, 24 hours): 69 ng/mL
AREA UNDER PLASMA CONCENTRATION-TIME CURVE, MEAN [3]: 1880 ± 950 ng·h/mL
AREA UNDER PLASMA CONCENTRATION-TIME CURVE, MEAN ([3]; listed as COMPOUND (I)): 1880 ng·h/mL
PLASMA CONCENTRATION MEAN ([3]; mean of dogs, 0.5 hours): 23 ng/mL
PLASMA CONCENTRATION MEAN ([3]; mean of dogs, 1 hour): 70 ng/mL
PLASMA CONCENTRATION MEAN ([3]; mean of dogs, 2 hours): 129 ng/mL
PLASMA CONCENTRATION MEAN ([3]; mean of dogs, 4 hours): 106 ng/mL
PLASMA CONCENTRATION MEAN ([3]; mean of dogs, 6 hours): 83 ng/mL
PLASMA CONCENTRATION MEAN ([3]; mean of dogs, 8 hours): 77 ng/mL
cGMP increase in hippocampus [4]: 58%
